# In patent US5571788A, “Stable calcitonin pharmaceutical compositions” (Ciba-Geigy Corporation, priority 1994, dated 1996):
# Key:
# [1] = Ability of an acid to produce a stable hCT solution (stored 24 hours at 25° C., solution remains clear); assay type: physicochemical; details: aqueous hCT solution with the acid, no salt or buffer
# [2] = Long-time hCT stability of aqueous solutions (solution remains clear, free of fibrils); details: for time solution is stable: Example 1 repeated (5 mg/ml hCT) with acetic acid replaced by the named acid
# [3] = Absorption spectra and HPLC of stored hCT solutions; assay type: physicochemical; details: hCT stored in aqueous solutions of Example 1
# [4] = Extrapolated time of fibrillation (ln/ln plot of fibrillation time against hCT concentration); assay type: physicochemical; details: 5-9 mg/ml hCT in 0.001% acetic acid, 4° C.; ln/ln plot from solutions up to 100 mg/ml hCT
# Procedure: The stability of the solution is dependent on the concentration. We have found a linear correlation between the natural logarithm of fibrillation time and the natural logarithm of hCT concentration at a given temperature. From measurements on hCT solutions with concentrations up to 100 mg/ml hCT and using the 1n/1n plot, stability of more than 5 years at 4° C. is predicted for solutions with 5-9 mg/ml hCT in 0.001% acetic acid.
# Solutions of hCT are made using different concentrations of methyl cellulose (MC) and hydroxypropyl methyl cellulose (HPMC) with and without 0.01% benzethonium chloride (BTC), in one case also with 0.001% acetic acid (AA) and in one case using 0.5% dextran (D). The extrapolated time of fibrillation in years is given for hCT concentration of 3.3 mg/ml and 6.6 mg/ml.
# [5] = SUNTEST accelerated light exposure, stability against fibril formation; assay type: physicochemical; details: Example 3 solutions with 0.5% hydroxypropylmethylcellulose; after 24 hours at 47° C. in SUNTEST machine
# [6] = Chemical stability tests (Roger's test); assay type: physicochemical; details: 3.3 mg/ml hCT, 0.5% methyl cellulose, 0.02% benzethonium chloride, 0.001% acetic acid; in 5 years, storage at 10° C.
# Procedure: A solution of hCT is made containing 3.3 mg/ml hCT, 0.5% methyl cellulose, 0.02% benzethonium chloride and 0.001% acetic acid. Chemical stability tests (Roger's test) predicted only 0.02% chemical decomposition of the hCT in 5 years for storage at 10° C.
Molecule,acid forms stable hCT solution [1],time solution is stable [2],also measured
O=C(O)C(O)C(O)C(=O)O [L-α-tartaric acid],form stable solutions,over 4 days,–
Cl [hydrochloric acid],form stable solutions,over 4 days,–
O=C(O)CN(CCN(CC(=O)O)CC(=O)O)CC(=O)O [ethylene - diamine tetraacetic acid],form stable solutions,–,–
O=C(O)C(O)C(O)C(=O)O (racemic) [DL-tartaric acid],form stable solutions,over 4 days,–
O=C(O)CC(=O)O [malonic acid],form stable solutions,over 4 days,–
O=S(=O)(O)O [sulphuric acid],do not form stable solutions,–,–
O=C(O)/C=C\C(=O)O [maleic acid],do not form stable solutions,–,–
O=C(O)CC(O)(CC(=O)O)C(=O)O [citric acid],form stable solutions,over 4 days,–
O=C(O)CCCC(=O)O [glutaric acid],form stable solutions,over 4 days,–
O=C(O)[C@H](O)[C@@H](O)[C@H](O)[C@H](O)CO [gluconic acid],do not form stable solutions,–,–
O=C(O)CCCCC(=O)O [adipic acid],form stable solutions,over 4 days,–
human calcitonin [hCT],–,–,"change in hCT properties (absorption spectra and HPLC) [3]: no change in hCT properties; predicted stability of hCT solution [4]: more than 5 years; stability against fibril formation under accelerated light exposure [5]: stable against fibril formulation; predicted chemical decomposition of the hCT [6]: 0.02%; time solutions are stable ([2]; Example 3: Example 1 solutions (5 mg/ml hCT, acetic acid) plus 0.5% hydroxypropylmethylcellulose, 4° C., 22° C. and 37° C., in the dark or in daylight): more than 3.5 months"
N[C@@H](CCC(=O)O)C(=O)O [L-glutamic acid],–,over 4 days,–
N[C@H](CCC(=O)O)C(=O)O [D-glutamic acid],do not form stable solutions,–,–
Oc1ccccc1 [phenol],form stable solutions,–,–
O=C1O[C@H]([C@@H](O)CO)C(O)=C1O [ascorbic acid],form stable solutions,over 4 days,–
O=C(O)CCC(=O)O [succinic acid],–,over 4 days,–
CC(=O)O [acetic acid],form stable solutions,–,stabilising conditions for hCT solution ([2]; acid concentration 0.001%): best case
N[C@@H](CC(=O)O)C(=O)O [aspartic acid],do not form stable solutions,–,–
O=CO [formic acid],form stable solutions,over 4 days,–
